Measurements reported in patent US5968910A, “Compositions containing two or three inhibitors of different HIV reverse transcriptases” (priority 1994, dated 1999).

What was measured:
Assay type in all cases: cell-based
HIV-1(IIIB) (WT) = assay: microbe, parasite or virus in culture
Description: (§1) CEM cells were suspended at 250,000 cells per ml of culture medium and infected with wild-type HIV-I(IIIB) or mutant HIV-1 strains at 100 50% cell culture infective doses per ml. Then 100 μl of the infected cell suspensions was added to 200-μl microtiter plate wells containing 100 μl of an appropriate dilution of the test compounds. After 4 days incubation at 37° C., the cell cultures were examined for syncytium formation.

HIV-1/B 101Glu = assay: Sensitivity of mutant HIV-1 strain in CEM cell cultures; details: Table 5
Description: as §1

HIV-1/I(0.1) 103-Asn = assay: as above; details: Table 5
Description: as §1

HIV-1/II(0.1) 100-Ile = assay: as above; details: Table 5
Description: as §1

HIV-1/III(0.1) 103-Asn = assay: as above; details: Table 5
Description: as §1

HIV-1/IV(0.1) 103-Thr = assay: as above; details: Table 5
Description: as §1

[1] = test system: HIV-1/V(0.1) 101-Ile + 141-Glu; assay: as above; details: Table 5
Description: as §1

HIV-1/V(0.5) 103-Asn = assay: as above; details: Table 5
Description: as §1

HIV-1 = assay: Breakthrough of mutant HIV-1 strains in CEM cell cultures, single drugs and double/triple combinations
Description: The culture medium consisted of RPMI 1640 containing 10% fetal bovine serum, 2 mM L-glutamine, and 0.075% NaHCO3. The multiplicity of the initial infection was ~1000 times the CCID50 (50% cell culture infective dose). Passages were performed every 3 to 4 days by adding 0.5 to 1.0 ml of the infected culture supernatant to 5 ml of a suspension containing 4×10^5 uninfected CEM cells per ml. Syncytium formation was used as a parameter of virus breakthrough in the cell cultures. In the drug combination experiments, the compounds were combined at the same initial concentrations as used for the two lowest concentrations in the single-drug experiments.
Compound IV, BHAP and TSAO-m^3 T were added to HIV-1-infected CEM cell cultures at 0.04, 0.10 and 0.25 ug/ml (Compound IV and BHAP) or 1.0, 2.5 and 5.0 μg/ml (TSAO-m^3 T). In addition, various double- and triple-drug combinations of Compound IV, BHAP and TSAO-m^3 T were performed, combining these inhibitors at their lowest (0.04 μg/ml) or intermediary (0.1 μg/ml) concentration as used in the single-drug experiments.

CC(C)Nc1cccnc1N1CCN(C(=O)c2cc3cc(NS(C)(=O)=O)ccc3[nH]2)CC1 [BHAP U90152]
0.05 µg/mL: EC50 (HIV-1/III(0.1) 103-Asn)
0.47 µg/mL: EC50 (HIV-1/IV(0.1) 103-Thr)
75 percentage of control: HIV-1-induced syncytium formation in CEM cells (HIV-1; single drug 0.04 μg/ml, day 11 post infection) | HIV-1-induced syncytium formation in CEM cells (HIV-1; single drug 0.10 μg/ml, day 18 post infection)
1.0 µg/mL: EC50 (HIV-1/B 101Glu)
50 percentage of control: HIV-1-induced syncytium formation in CEM cells (HIV-1; single drug 0.25 μg/ml, day 18 post infection)
0.10 µg/mL: EC50 [1]
0.67 µg/mL: EC50 (HIV-1/II(0.1) 100-Ile)
0.010 µg/mL: EC50 (HIV-1(IIIB) (WT))
6.25 percentage of control: HIV-1-induced syncytium formation in CEM cells (HIV-1; single drug 0.25 μg/ml, day 14 post infection)
0.25 µg/mL: EC50 (HIV-1/I(0.1) 103-Asn)
14 days: virus breakthrough delayed till day (HIV-1; single drug, higher concentrations)
12.5 percentage of control: HIV-1-induced syncytium formation in CEM cells (HIV-1; single drug 0.04 μg/ml, day 7 post infection) | HIV-1-induced syncytium formation in CEM cells (HIV-1; single drug 0.10 μg/ml, day 14 post infection)
0.50 µg/mL: EC50 (HIV-1/V(0.5) 103-Asn)
100 percentage of control: HIV-1-induced syncytium formation in CEM cells (HIV-1; single drug 0.04 μg/ml, day 14 post infection) | HIV-1-induced syncytium formation in CEM cells (HIV-1; single drug 0.04 μg/ml, day 18 post infection) | HIV-1-induced syncytium formation in CEM cells (HIV-1; single drug 0.04 μg/ml, day 21 post infection) | HIV-1-induced syncytium formation in CEM cells (HIV-1; single drug 0.04 μg/ml, day 25 post infection) | HIV-1-induced syncytium formation in CEM cells (HIV-1; single drug 0.04 μg/ml, day 28 post infection) | HIV-1-induced syncytium formation in CEM cells (HIV-1; single drug 0.04 μg/ml, day 32 post infection) | HIV-1-induced syncytium formation in CEM cells (HIV-1; single drug 0.04 μg/ml, day 35 post infection) | HIV-1-induced syncytium formation in CEM cells (HIV-1; single drug 0.04 μg/ml, day 39 post infection) | HIV-1-induced syncytium formation in CEM cells (HIV-1; single drug 0.04 μg/ml, day 42 post infection) | HIV-1-induced syncytium formation in CEM cells (HIV-1; single drug 0.04 μg/ml, day 46 post infection) | HIV-1-induced syncytium formation in CEM cells (HIV-1; single drug 0.04 μg/ml, day 49 post infection) | HIV-1-induced syncytium formation in CEM cells (HIV-1; single drug 0.04 μg/ml, day 53 post infection) | HIV-1-induced syncytium formation in CEM cells (HIV-1; single drug 0.04 μg/ml, day 56 post infection) | HIV-1-induced syncytium formation in CEM cells (HIV-1; single drug 0.04 μg/ml, day 60 post infection) | HIV-1-induced syncytium formation in CEM cells (HIV-1; single drug 0.04 μg/ml, day 64 post infection) | HIV-1-induced syncytium formation in CEM cells (HIV-1; single drug 0.04 μg/ml, day 67 post infection) | HIV-1-induced syncytium formation in CEM cells (HIV-1; single drug 0.04 μg/ml, day 71 post infection) | HIV-1-induced syncytium formation in CEM cells (HIV-1; single drug 0.04 μg/ml, day 74 post infection) | HIV-1-induced syncytium formation in CEM cells (HIV-1; single drug 0.04 μg/ml, day 77 post infection) | HIV-1-induced syncytium formation in CEM cells (HIV-1; single drug 0.10 μg/ml, day 21 post infection) | HIV-1-induced syncytium formation in CEM cells (HIV-1; single drug 0.10 μg/ml, day 25 post infection) | HIV-1-induced syncytium formation in CEM cells (HIV-1; single drug 0.10 μg/ml, day 28 post infection) | HIV-1-induced syncytium formation in CEM cells (HIV-1; single drug 0.10 μg/ml, day 32 post infection) | HIV-1-induced syncytium formation in CEM cells (HIV-1; single drug 0.10 μg/ml, day 35 post infection) | HIV-1-induced syncytium formation in CEM cells (HIV-1; single drug 0.10 μg/ml, day 39 post infection) | HIV-1-induced syncytium formation in CEM cells (HIV-1; single drug 0.10 μg/ml, day 42 post infection) | HIV-1-induced syncytium formation in CEM cells (HIV-1; single drug 0.10 μg/ml, day 46 post infection) | HIV-1-induced syncytium formation in CEM cells (HIV-1; single drug 0.10 μg/ml, day 49 post infection) | HIV-1-induced syncytium formation in CEM cells (HIV-1; single drug 0.10 μg/ml, day 53 post infection) | HIV-1-induced syncytium formation in CEM cells (HIV-1; single drug 0.10 μg/ml, day 56 post infection) | HIV-1-induced syncytium formation in CEM cells (HIV-1; single drug 0.10 μg/ml, day 60 post infection) | HIV-1-induced syncytium formation in CEM cells (HIV-1; single drug 0.10 μg/ml, day 64 post infection) | HIV-1-induced syncytium formation in CEM cells (HIV-1; single drug 0.10 μg/ml, day 67 post infection) | HIV-1-induced syncytium formation in CEM cells (HIV-1; single drug 0.10 μg/ml, day 71 post infection) | HIV-1-induced syncytium formation in CEM cells (HIV-1; single drug 0.10 μg/ml, day 74 post infection) | HIV-1-induced syncytium formation in CEM cells (HIV-1; single drug 0.10 μg/ml, day 77 post infection) | HIV-1-induced syncytium formation in CEM cells (HIV-1; single drug 0.25 μg/ml, day 21 post infection) | HIV-1-induced syncytium formation in CEM cells (HIV-1; single drug 0.25 μg/ml, day 25 post infection) | HIV-1-induced syncytium formation in CEM cells (HIV-1; single drug 0.25 μg/ml, day 28 post infection) | HIV-1-induced syncytium formation in CEM cells (HIV-1; single drug 0.25 μg/ml, day 32 post infection) | HIV-1-induced syncytium formation in CEM cells (HIV-1; single drug 0.25 μg/ml, day 35 post infection) | HIV-1-induced syncytium formation in CEM cells (HIV-1; single drug 0.25 μg/ml, day 39 post infection) | HIV-1-induced syncytium formation in CEM cells (HIV-1; single drug 0.25 μg/ml, day 42 post infection) | HIV-1-induced syncytium formation in CEM cells (HIV-1; single drug 0.25 μg/ml, day 46 post infection) | HIV-1-induced syncytium formation in CEM cells (HIV-1; single drug 0.25 μg/ml, day 49 post infection) | HIV-1-induced syncytium formation in CEM cells (HIV-1; single drug 0.25 μg/ml, day 53 post infection) | HIV-1-induced syncytium formation in CEM cells (HIV-1; single drug 0.25 μg/ml, day 56 post infection) | HIV-1-induced syncytium formation in CEM cells (HIV-1; single drug 0.25 μg/ml, day 60 post infection) | HIV-1-induced syncytium formation in CEM cells (HIV-1; single drug 0.25 μg/ml, day 64 post infection) | HIV-1-induced syncytium formation in CEM cells (HIV-1; single drug 0.25 μg/ml, day 67 post infection) | HIV-1-induced syncytium formation in CEM cells (HIV-1; single drug 0.25 μg/ml, day 71 post infection) | HIV-1-induced syncytium formation in CEM cells (HIV-1; single drug 0.25 μg/ml, day 74 post infection) | HIV-1-induced syncytium formation in CEM cells (HIV-1; single drug 0.25 μg/ml, day 77 post infection)
0 percentage of control: HIV-1-induced syncytium formation in CEM cells (HIV-1; single drug 0.04 μg/ml, day 4 post infection) | HIV-1-induced syncytium formation in CEM cells (HIV-1; single drug 0.10 μg/ml, day 4 post infection) | HIV-1-induced syncytium formation in CEM cells (HIV-1; single drug 0.10 μg/ml, day 7 post infection) | HIV-1-induced syncytium formation in CEM cells (HIV-1; single drug 0.10 μg/ml, day 11 post infection) | HIV-1-induced syncytium formation in CEM cells (HIV-1; single drug 0.25 μg/ml, day 4 post infection) | HIV-1-induced syncytium formation in CEM cells (HIV-1; single drug 0.25 μg/ml, day 7 post infection) | HIV-1-induced syncytium formation in CEM cells (HIV-1; single drug 0.25 μg/ml, day 11 post infection)
